Experiment [1] addresses Calcium/calmodulin-dependent protein kinase type II subunit alpha (Homo sapiens) (UniProt Q9UQM7).
Experiment [2] deals with Calcium/calmodulin-dependent protein kinase type II subunit delta (Homo sapiens) (UniProt Q13557).
For experiment [3], the target named is Calcium/calmodulin-dependent protein kinase kinase 2 (Homo sapiens, UniProt Q96RR4).
For experiment [4], the target named is Cyclin-dependent kinase-like 1 (Homo sapiens) (UniProt Q00532).
Experiment [5] has as its target Dual specificity protein kinase CLK1 (Homo sapiens) (UniProt P49759).
The target in experiment [6] is Dual specificity protein kinase CLK2 (Homo sapiens) (UniProt P49760).
Dual specificity protein kinase CLK2 (Homo sapiens), sequence (P49760 whole entry, looked up): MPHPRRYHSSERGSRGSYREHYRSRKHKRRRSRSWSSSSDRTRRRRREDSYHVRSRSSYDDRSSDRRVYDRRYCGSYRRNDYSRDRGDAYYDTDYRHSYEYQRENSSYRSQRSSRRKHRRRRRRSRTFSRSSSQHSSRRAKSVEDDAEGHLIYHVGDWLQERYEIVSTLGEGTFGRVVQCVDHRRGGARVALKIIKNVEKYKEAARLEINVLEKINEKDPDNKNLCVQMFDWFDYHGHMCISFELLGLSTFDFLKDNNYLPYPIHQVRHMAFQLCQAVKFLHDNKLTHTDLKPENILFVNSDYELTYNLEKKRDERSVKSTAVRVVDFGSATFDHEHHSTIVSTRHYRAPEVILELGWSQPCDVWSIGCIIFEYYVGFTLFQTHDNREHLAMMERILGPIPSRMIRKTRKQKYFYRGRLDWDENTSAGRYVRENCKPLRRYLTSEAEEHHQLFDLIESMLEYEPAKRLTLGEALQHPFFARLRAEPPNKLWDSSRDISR
In experiment [7] the target is Dual specificity protein kinase CLK3 (Homo sapiens) (UniProt P49761).
Dual specificity protein kinase CLK3 (Homo sapiens), sequence (P49761 whole entry, looked up, canonical isoform): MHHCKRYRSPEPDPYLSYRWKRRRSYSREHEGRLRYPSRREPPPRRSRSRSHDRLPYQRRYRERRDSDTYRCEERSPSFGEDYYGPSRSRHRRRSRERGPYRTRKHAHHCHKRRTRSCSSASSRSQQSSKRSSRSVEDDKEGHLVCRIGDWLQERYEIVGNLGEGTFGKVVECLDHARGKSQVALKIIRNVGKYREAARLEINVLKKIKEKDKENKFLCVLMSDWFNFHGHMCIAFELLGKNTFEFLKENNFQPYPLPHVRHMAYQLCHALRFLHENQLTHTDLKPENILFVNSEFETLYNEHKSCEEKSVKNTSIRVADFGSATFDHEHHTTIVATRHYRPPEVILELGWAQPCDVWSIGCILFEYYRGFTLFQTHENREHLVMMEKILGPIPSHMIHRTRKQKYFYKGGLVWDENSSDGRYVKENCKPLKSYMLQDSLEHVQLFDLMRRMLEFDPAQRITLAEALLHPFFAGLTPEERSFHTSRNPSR
The target in experiment [8] is Casein kinase I isoform gamma-1 (Homo sapiens) (UniProt Q9HCP0).
For experiment [9], the target named is Casein kinase I isoform gamma-3 (Homo sapiens) (UniProt Q9Y6M4).
Casein kinase I isoform gamma-3 (Homo sapiens), sequence (Q9Y6M4 whole entry, looked up, canonical isoform): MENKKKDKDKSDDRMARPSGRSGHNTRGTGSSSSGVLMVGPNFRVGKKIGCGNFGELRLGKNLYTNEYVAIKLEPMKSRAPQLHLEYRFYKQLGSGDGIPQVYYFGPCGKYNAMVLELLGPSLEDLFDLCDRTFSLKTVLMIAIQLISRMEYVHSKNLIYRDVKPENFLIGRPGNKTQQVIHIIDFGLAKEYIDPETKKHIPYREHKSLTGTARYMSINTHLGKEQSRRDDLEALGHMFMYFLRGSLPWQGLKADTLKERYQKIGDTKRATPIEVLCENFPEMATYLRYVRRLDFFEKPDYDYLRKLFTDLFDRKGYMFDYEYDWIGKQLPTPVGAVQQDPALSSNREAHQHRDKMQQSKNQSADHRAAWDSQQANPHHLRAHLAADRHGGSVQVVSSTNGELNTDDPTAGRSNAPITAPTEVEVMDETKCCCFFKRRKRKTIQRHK
Experiment [10] has as its target Serine/threonine-protein kinase Nek6 (Homo sapiens) (UniProt Q9HC98).
The target in experiment [11] is Serine/threonine-protein kinase OSR1 (Homo sapiens) (UniProt O95747).
Experiment [12] addresses T1, 3-phosphoinositide-dependent protein kinase 1 (Homo sapiens) (UniProt O15530).
T1 sequence (whole entry): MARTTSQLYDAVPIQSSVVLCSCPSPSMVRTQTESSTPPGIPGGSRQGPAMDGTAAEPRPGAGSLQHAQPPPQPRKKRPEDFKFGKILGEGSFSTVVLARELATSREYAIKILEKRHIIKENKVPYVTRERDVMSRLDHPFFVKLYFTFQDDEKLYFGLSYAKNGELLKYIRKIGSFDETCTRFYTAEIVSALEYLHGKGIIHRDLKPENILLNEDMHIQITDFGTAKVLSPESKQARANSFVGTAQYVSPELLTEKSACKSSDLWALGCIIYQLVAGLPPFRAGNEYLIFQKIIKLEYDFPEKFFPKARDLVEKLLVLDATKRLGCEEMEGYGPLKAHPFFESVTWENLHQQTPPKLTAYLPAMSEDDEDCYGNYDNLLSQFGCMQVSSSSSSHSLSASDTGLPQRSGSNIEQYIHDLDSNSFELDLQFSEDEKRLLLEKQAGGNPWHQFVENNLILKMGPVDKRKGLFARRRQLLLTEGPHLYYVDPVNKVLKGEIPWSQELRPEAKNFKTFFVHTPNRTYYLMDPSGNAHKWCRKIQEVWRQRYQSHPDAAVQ

For experiment [13], the target named is T2, Serine/threonine-protein kinase PLK4 (Homo sapiens) (UniProt O00444).
T2 sequence (whole entry): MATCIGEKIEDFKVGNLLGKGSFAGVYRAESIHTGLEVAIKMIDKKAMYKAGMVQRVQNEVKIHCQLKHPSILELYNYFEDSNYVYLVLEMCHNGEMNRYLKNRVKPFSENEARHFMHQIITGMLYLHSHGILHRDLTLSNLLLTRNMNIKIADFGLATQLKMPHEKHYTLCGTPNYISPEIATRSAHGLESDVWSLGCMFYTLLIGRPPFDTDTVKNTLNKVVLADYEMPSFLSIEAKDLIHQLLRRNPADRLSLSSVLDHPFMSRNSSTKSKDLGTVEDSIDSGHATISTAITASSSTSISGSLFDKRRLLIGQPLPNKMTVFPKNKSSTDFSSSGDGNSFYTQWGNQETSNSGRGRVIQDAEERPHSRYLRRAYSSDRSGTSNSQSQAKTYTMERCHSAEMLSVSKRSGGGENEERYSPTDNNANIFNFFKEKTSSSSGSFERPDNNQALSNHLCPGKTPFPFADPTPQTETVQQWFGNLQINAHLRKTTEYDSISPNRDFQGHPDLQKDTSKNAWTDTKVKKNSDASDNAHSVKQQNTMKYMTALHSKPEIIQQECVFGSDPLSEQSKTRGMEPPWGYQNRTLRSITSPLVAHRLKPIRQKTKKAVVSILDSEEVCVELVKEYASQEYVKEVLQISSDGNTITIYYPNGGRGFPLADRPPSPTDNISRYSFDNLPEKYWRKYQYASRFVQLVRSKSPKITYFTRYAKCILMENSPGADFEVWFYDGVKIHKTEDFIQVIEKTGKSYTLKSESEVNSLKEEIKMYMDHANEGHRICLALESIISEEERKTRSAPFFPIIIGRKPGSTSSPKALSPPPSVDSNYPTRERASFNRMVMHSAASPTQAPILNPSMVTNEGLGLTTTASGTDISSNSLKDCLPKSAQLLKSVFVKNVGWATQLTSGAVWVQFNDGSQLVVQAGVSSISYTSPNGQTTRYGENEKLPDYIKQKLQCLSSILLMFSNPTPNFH

Experiment [14] has as its target Serine/threonine-protein kinase 16 (Homo sapiens) (UniProt O75716).
Experiment [15] has as its target T3, Serine/threonine-protein kinase 17A (Homo sapiens) (UniProt Q9UEE5).
T3 sequence (whole entry): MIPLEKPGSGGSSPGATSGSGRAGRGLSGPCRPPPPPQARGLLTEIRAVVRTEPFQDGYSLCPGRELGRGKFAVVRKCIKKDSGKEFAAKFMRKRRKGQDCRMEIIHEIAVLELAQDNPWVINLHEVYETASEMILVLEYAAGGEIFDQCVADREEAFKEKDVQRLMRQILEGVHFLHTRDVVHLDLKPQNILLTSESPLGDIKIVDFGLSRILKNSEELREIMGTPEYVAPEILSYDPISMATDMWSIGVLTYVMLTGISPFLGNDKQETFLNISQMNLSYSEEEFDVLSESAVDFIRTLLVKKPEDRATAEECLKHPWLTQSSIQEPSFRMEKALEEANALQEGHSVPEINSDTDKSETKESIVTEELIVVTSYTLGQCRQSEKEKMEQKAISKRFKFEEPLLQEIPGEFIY

Experiment [16] deals with Serine/threonine-protein kinase VRK2 (Homo sapiens) (UniProt Q86Y07).
Serine/threonine-protein kinase VRK2 (Homo sapiens), sequence (Q86Y07 whole entry): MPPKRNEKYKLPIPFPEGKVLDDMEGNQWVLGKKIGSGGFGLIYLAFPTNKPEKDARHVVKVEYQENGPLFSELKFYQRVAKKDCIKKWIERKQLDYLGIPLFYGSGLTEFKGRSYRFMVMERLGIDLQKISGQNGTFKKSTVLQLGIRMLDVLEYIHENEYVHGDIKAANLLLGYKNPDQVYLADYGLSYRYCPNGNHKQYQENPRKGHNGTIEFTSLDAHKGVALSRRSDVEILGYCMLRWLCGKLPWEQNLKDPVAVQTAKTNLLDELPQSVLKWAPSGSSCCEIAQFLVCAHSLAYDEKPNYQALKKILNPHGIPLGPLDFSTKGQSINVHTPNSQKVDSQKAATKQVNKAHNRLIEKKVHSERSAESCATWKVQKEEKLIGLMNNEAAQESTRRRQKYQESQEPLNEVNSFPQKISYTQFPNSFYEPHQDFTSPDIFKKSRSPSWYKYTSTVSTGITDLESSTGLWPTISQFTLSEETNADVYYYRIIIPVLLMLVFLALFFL

Cyclin-dependent kinase-like 1 (Homo sapiens), sequence (Q00532 whole entry): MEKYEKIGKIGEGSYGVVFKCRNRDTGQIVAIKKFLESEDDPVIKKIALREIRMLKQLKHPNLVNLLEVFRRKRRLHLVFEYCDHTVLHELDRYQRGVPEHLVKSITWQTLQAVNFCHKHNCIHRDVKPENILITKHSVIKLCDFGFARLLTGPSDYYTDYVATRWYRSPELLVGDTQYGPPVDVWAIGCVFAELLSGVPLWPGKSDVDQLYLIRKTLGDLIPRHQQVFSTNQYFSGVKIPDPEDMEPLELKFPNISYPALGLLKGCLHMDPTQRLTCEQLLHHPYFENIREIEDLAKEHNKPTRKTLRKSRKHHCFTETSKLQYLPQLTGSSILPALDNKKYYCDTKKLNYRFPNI
Calcium/calmodulin-dependent protein kinase type II subunit alpha (Homo sapiens), sequence (Q9UQM7 whole entry): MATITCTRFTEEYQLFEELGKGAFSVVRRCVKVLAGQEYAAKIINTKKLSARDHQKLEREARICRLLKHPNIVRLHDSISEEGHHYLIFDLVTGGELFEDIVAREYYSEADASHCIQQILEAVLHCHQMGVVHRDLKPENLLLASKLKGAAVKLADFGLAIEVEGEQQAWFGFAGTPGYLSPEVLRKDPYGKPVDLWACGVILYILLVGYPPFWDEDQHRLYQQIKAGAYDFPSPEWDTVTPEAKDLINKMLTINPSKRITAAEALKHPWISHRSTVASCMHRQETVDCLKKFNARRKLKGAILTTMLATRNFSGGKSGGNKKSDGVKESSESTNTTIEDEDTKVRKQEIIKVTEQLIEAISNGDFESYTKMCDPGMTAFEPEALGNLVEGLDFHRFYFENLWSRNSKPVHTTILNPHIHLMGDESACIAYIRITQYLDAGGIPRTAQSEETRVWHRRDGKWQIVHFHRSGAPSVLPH
Calcium/calmodulin-dependent protein kinase kinase 2, sequence (Q96RR4 2-588 limits assumed): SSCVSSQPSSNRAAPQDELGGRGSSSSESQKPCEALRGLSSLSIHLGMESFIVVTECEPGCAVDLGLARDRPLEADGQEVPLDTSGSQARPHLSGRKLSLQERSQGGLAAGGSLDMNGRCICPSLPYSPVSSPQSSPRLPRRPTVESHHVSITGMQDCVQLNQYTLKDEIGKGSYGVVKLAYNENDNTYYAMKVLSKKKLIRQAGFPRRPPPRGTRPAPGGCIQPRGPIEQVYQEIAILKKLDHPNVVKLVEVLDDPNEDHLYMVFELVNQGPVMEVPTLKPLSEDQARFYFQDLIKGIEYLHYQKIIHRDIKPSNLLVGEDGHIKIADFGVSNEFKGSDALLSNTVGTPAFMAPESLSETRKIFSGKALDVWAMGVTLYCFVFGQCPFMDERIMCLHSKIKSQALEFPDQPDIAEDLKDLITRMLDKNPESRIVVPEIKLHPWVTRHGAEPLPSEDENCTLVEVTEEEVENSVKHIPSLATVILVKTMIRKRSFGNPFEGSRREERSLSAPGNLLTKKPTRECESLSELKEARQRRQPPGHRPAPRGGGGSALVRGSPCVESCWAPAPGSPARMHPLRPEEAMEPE
Dual specificity protein kinase CLK1 (Homo sapiens), sequence (P49759 whole entry, looked up): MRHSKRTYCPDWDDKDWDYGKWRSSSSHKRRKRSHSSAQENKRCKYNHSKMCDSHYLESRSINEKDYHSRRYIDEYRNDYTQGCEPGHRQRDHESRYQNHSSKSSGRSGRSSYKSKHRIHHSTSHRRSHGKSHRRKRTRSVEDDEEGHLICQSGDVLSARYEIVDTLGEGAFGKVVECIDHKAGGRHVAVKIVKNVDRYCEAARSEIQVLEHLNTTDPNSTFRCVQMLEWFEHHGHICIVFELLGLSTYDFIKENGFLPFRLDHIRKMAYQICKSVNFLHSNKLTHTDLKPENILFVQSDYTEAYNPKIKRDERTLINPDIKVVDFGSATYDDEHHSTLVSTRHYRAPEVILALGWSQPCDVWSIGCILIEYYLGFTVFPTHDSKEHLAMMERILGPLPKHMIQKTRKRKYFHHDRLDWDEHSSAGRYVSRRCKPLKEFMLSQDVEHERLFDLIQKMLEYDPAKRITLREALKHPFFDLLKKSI
Calcium/calmodulin-dependent protein kinase type II subunit delta (Homo sapiens), sequence (Q13557 whole entry): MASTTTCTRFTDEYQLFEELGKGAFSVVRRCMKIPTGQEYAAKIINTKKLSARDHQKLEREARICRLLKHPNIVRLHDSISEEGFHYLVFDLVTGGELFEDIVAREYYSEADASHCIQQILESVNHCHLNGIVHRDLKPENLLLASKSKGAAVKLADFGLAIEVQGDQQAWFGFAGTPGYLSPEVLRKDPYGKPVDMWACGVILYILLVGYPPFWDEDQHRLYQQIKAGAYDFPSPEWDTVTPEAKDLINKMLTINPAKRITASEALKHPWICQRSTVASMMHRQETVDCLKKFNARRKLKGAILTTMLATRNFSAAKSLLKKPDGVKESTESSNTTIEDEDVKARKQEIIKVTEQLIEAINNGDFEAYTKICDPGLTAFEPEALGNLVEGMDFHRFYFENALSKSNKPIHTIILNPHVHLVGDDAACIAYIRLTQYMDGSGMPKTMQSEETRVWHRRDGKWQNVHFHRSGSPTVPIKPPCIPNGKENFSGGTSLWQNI
Serine/threonine-protein kinase 16 (Homo sapiens), sequence (O75716 whole entry): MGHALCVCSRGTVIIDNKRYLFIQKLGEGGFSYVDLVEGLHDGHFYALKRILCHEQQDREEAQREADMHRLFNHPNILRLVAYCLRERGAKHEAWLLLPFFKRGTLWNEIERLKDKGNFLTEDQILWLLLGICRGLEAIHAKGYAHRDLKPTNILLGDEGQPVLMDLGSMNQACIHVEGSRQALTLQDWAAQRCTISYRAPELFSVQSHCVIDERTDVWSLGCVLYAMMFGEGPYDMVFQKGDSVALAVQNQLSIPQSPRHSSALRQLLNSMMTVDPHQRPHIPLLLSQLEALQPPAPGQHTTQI
Serine/threonine-protein kinase Nek6 (Homo sapiens), sequence (Q9HC98 whole entry): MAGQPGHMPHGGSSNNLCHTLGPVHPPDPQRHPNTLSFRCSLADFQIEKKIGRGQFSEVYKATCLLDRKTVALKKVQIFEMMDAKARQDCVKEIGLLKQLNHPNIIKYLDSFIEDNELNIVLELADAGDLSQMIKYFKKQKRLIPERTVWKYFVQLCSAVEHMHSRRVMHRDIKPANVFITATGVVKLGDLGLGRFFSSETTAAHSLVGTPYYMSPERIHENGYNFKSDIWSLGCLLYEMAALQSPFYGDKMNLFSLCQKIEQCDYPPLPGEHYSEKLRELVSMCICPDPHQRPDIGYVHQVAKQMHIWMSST

In general, ΔTm refers to the shift of the melting midpoint relative to a reference. In the case of `Oc1cc(O)cc(/C=C/c2ccc(O)c(O)c2)c1` [PICEATANNOL], the ΔTm was 0.8 °C in experiment [1]; 0.1 °C in experiment [2]; 0.5 °C in experiment [3]; -0.2 °C in experiment [4]; 0.9 °C in [5]; 0.6 °C in [6]. The ΔTm in experiment [7] is 0.7 °C; in experiment [8], 0 °C; in experiment [9], 0.5 °C; in experiment [10], 0.6 °C; in experiment [11], 1.6 °C; in experiment [12], -0.4 °C. Further, the ΔTm in [13] was 1.1 °C; in experiment [14], 4.4 °C; in [15] it was 0.3 °C; in [16] it was -0.4 °C.
With `CCOc1ccc(/C=C2/SC(=O)N(CCN)C2=O)cc1` [HIAZOLIDINEDIONE1], the ΔTm in experiment [1] is -0.2 °C; in experiment [2], 0 °C; in experiment [3], -0.4 °C; in [4], 0.3 °C; in [5], 0.9 °C; in [6], 0.2 °C. Further, the ΔTm in experiment [7] is 0.1 °C; in experiment [8], 0.3 °C; in [9], -0.1 °C; in experiment [10], -1.7 °C; in [11], -0.1 °C; in [12], -0.3 °C. Besides, the ΔTm is 0.3 °C in experiment [13], -0.1 °C in [14], -0.6 °C in experiment [15] and 0.1 °C in [16].
Consider `Cc1cc(Nc2nc(-c3ccccc3)nc3ccccc23)n[nH]1`, for which the ΔTm amounted to 1.4 °C in [1]; 0.7 °C in experiment [2]; 2 °C in experiment [3]; 1.5 °C in experiment [4]; 5.8 °C in [5]; 2.8 °C in experiment [6]. For the same molecule, the ΔTm in [7] was 3.5 °C; in experiment [8], 3.3 °C; in experiment [9], 2.8 °C; in experiment [10], 0.4 °C; in experiment [11], 2.9 °C; in [12], -0.4 °C. Further, the ΔTm amounted to 1.3 °C in experiment [13], 5.6 °C in experiment [14], 2.2 °C in [15] and 0.4 °C in experiment [16].
Turning to `c1ccc(-c2n[nH]c3c2oc2ccccc23)cc1`, the ΔTm was 0.3 °C in experiment [1]; -0.2 °C in [2]; 2.5 °C in experiment [3]; 0.1 °C in [4]; 1.8 °C in experiment [5]; 1.7 °C in experiment [6]. The ΔTm is 0 °C in experiment [7]; 0.8 °C in [8]; 0.5 °C in experiment [9]; 0 °C in [10]; 0.8 °C in [11]; -0.5 °C in experiment [12]. In addition, the ΔTm in experiment [13] came out at 1.2 °C; in [14], 6.8 °C; in experiment [15], 1 °C; in [16] it was 0.6 °C.
As for `O=C1Nc2ccccc2/C1=C\c1ccc[nH]1`, the ΔTm in [1] was 1.2 °C; in experiment [2], -0.5 °C; in experiment [3] it was 4.7 °C; in [4] it was 1.4 °C; in [5], 2.7 °C; in experiment [6], 2.1 °C. Also, the ΔTm came out at 0.5 °C in experiment [7]; 1.4 °C in experiment [8]; 1.8 °C in experiment [9]; 0 °C in [10]; 2.7 °C in experiment [11]; 0.9 °C in [12]. Also, the ΔTm in experiment [13] worked out at 6 °C; in [14] it was 4.3 °C; in experiment [15] it was 11 °C; in experiment [16] it was 3.4 °C.
For the molecule `NC(=O)c1ccc2[nH]c(-c3ccc(Oc4ccc(Cl)cc4)cc3)nc2c1`, the ΔTm in experiment [1] was 0.1 °C; in experiment [2], 1.5 °C; in experiment [3], 2.4 °C; in experiment [4] it was 0.1 °C; in experiment [5] it was 1.2 °C; in [6] it was -0.4 °C. For the same molecule, the ΔTm in [7] is 0.5 °C; in experiment [8], 1.7 °C; in experiment [9], 1.3 °C; in [10], 0.4 °C; in [11] it was 0.8 °C; in [12], -0.5 °C. Besides, the ΔTm in experiment [13] came out at 1.4 °C; in [14] it was 4.7 °C; in [15] it was 0.7 °C; in [16] it was 0.5 °C.
Take `CSc1nc(-c2ccc(F)cc2)c(-c2ccnc(NC(C)c3ccccc3)c2)[nH]1` (racemic): the ΔTm was 0.6 °C in experiment [1]; 0.9 °C in [2]; 0.7 °C in experiment [3]; 0.8 °C in [4]; 0 °C in experiment [5]; 0.1 °C in experiment [6]. The ΔTm was -0.2 °C in [7]; 3.6 °C in experiment [8]; 3.4 °C in [9]; 0.5 °C in [10]; 0.3 °C in [11]; -0.9 °C in experiment [12]. Moreover, the ΔTm in experiment [13] was 0.3 °C; in [14], -0.1 °C; in experiment [15] it was 0.1 °C; in experiment [16], 0.2 °C.
For `NS(=O)(=O)c1ccc(Nc2nc(OCC3CCCCC3)c3nc[nH]c3n2)cc1`, the ΔTm in experiment [1] turned out to be 0.6 °C; in experiment [2] it was 0.2 °C; in experiment [3], 0.8 °C; in experiment [4] it was 0.6 °C; in experiment [5], 3.9 °C; in experiment [6], 2.7 °C. Further, the ΔTm in experiment [7] is 1.3 °C; in [8], 2.6 °C; in experiment [9], 2.2 °C; in experiment [10], 0.1 °C; in [11], 1 °C; in experiment [12] it was -0.1 °C. The ΔTm in experiment [13] came out at 1.1 °C; in [14] it was 4.4 °C; in experiment [15], 1.8 °C; in [16], 0.6 °C.
As to `COc1ccc(S(=O)(=O)N(CCO)c2ccccc2CN(C)C/C=C/c2ccc(Cl)cc2)cc1`, the ΔTm in experiment [1] is -0.7 °C; in experiment [2], -1.2 °C; in experiment [3] it was 0 °C; in experiment [4] it was -1.2 °C; in experiment [5], 0.1 °C; in experiment [6], -0.3 °C. The ΔTm is -0.3 °C in experiment [7]; 0.1 °C in experiment [8]; 0 °C in experiment [9]; 0.3 °C in experiment [10]; -0.7 °C in experiment [11]; 0.4 °C in experiment [12]. Moreover, the ΔTm in experiment [13] was 1 °C; in [14], 0.5 °C; in [15], 0.1 °C; in experiment [16], -0.3 °C.

Values taken from ChEMBL document CHEMBL1145498, “A systematic interaction map of validated kinase inhibitors with Ser/Thr kinases” (Proc Natl Acad Sci U S A, 2007).
